Measurements from patent US5216001A, “Indole derivatives” (H. Lunbeck A/S, priority 1990, dated 1993).
Where two headings read alike, the source gives them in different places.

How the values were obtained:
Type in all cases: in vivo
5-HT2 [1] = molecular target: T1, 5-HT2 (Rattus norvegicus, UniProt P14842); assay: quipazine inhibition (quipazine-induced head twitches in rats)
T1 construct: Four rats, male Wistar (Mol:Wist) SPF rats weighing 170-240 g; from tissue; host or cells: living male Wistar (Mol:Wist) SPF rats (in vivo, endogenous receptor)
Procedure: Quipazine is a 5-HT2 agonist, which induces head twitches in rats. The test is a test for 5-HT2 -antagonistic effect testing the ability to inhibit head twitches. The method and test results for some reference substances are published by Arnt et al. (Drug Development Research, 16, 59-70, 1989).
Test substance is injected s.c. 2 hrs before or p.o. 24 hrs before quipazine administration (6.8 mg/kg, s.c., dimaleate). Four rats, male Wistar (Mol:Wist) SPF rats weighing 170-240 g, are used at each dose level. A control group is included each test day. By repeated testing (2, 24 hrs) the control group is the same, however. After quipazine administration the rats are individually placed in the observation cages and head twitches are counted in an observation period of 30-40 min. after injection of quipazine.
Total number of head twitches in each group is calculated and the result for each dose is expressed as per cent of the response in the control group. ED50 values are calculated by log-probit analysis. The test must be repeated if the average number of head twitches is lower than 9 in the control group.

DA D-2 = molecular target: T2, DA D-2 (Rattus norvegicus, UniProt P61169); assay: antagonism of pergolide-induced circling behaviour in rats with unilateral 6-OHDA lesions; conditions: sc
T2 construct: Male Wistar rats (Mol:Wist) weighing about 200 g at the time of operation are used; from tissue; host or cells: living male Wistar (Mol:Wist) rats with unilateral 6-OHDA lesions (in vivo, endogenous receptor)
Procedure: ANTAGONISM OF PERGOLIDE-INDUCED CIRCLING BEHAVIOUR IN RATS WITH UNILATERAL 6-OHDA LESIONS
Dopamine (DA) D-2 agonists induce contralateral circling behaviour in rats with 6-OHDA lesions. Pergolide-induced circling is antagonized by DA D-2 antagonists.
Male Wistar rats (Mol:Wist) weighing about 200 g at the time of operation are used. Unilateral lesions are made in pentobarbital anaesthetized rats by injection of 6-OHDA. HCl 9.7 μg/μl (equivalent to 8 μg free base) per 4 min. into the rostral tip of the substantia nigra. The saline solution contains ascorbic acid 0.2 mg/ml, is bubbled with N2 and is kept ice-cold. The experiments are done when stable contralateral circling responses to pergolide (0.05 μmol/kg, s.c.) are obtained. The circling response is measured in rotometer bowls. Only rats showing more than 400 complete turns in 2 hrs control session are used. Dose-response curves are obtained by alternating test and control sessions on a weekly basis. The antagonists are injected s.c. 2 hrs before the agonist. The effect of individual doses of test drugs is calculated as per cent of the mean effect of control sessions one week before and one week after the test session for each rat. ED50 values are calculated by log-probit analysis. Four to eight rats are used at each dosage.

5-HT2 [2] = molecular target: T1, 5-HT2; assay: quipazine inhibition (quipazine-induced head twitches in rats); conditions: sc, 24 h, read-out: Quipazine inhibition ED50, 24h (sc)
[3] = po, 24 h, read-out: Quipazine inhibition ED50, 24h (po)
[4] = sc, 2 h, read-out: Quipazine inhibition ED50, 2h (sc)
[5] = read-out: Pergolide rot. inhibition ED50, 2h (sc), 6-OHDA lesions, s.c., 2 h before pergolide

T2 sequence (P61169 whole entry): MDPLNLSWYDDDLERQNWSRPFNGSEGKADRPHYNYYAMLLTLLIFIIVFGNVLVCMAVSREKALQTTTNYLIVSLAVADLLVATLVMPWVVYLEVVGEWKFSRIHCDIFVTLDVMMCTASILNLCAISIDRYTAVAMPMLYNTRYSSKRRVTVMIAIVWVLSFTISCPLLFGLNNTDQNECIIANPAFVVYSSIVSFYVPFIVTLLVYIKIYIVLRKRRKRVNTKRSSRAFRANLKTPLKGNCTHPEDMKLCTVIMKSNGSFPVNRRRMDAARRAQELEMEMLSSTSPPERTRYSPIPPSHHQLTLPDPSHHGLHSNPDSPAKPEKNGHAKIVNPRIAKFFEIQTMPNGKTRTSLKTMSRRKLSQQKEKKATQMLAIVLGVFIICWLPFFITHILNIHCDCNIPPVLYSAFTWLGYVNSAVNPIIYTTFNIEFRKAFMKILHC
T1 sequence (P14842 whole entry): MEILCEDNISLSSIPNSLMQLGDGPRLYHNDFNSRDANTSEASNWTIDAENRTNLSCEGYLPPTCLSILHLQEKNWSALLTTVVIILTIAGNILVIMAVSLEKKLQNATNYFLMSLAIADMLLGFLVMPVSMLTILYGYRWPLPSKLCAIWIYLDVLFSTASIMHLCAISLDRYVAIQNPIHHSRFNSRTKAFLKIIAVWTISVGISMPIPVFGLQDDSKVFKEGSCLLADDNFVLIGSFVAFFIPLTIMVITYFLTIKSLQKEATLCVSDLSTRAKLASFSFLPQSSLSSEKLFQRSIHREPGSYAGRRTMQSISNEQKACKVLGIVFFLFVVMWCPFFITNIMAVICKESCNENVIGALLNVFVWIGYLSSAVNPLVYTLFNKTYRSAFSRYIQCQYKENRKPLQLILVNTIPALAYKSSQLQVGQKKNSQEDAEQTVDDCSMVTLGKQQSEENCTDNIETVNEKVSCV

Structure (SMILES) | ED50 (5-HT2 [1]; [3]) [µmol/kg] | ED50 (5-HT2 [1]; [4]) [µmol/kg] | ED50 (DA D-2; 2 h, read-out: Pergolide rot. inhibition ED50, 2h (sc)) [µmol/kg] | ED50 (DA D-2; [5]) [µmol/kg] | Quipazine inhibition ED50, 2h (sc) (5-HT2 [1]; s.c., 2 h before quipazine) [µmol/kg] | ED50 (5-HT2 [2]) [µmol/kg]
CC(C)N1CCN(CCN2CCC(c3cn(-c4ccc(F)cc4)c4cc(Cl)ccc34)CC2)C1=O [Compound 4a, 6-chloro-1-(4-fluorophenyl)-3-[1-[2-[3-(2-propyl)-2-imidazolidinon-1-yl]ethyl]-4-piperidyl]-1H-indole] | 0.06 | 0.11 | > 17 | – | – | –
Cc1ccc2c(C3CCN(CCN4CCNC4=O)CC3)cn(-c3ccc(F)cc3)c2c1 [Compound 4g, 1-(4-fluorophenyl)-3-[1-[2-(2-imidazolidinon-1-yl)ethyl]-4-piperidyl]-6-methyl-1H-indole] | 0.04 | 0.02 | – | > 24 | – | –
Cc1ccc2c(C3CCN(CCN4CCN(C(C)C)C4=O)CC3)cn(-c3ccc(F)cc3)c2c1 [Compound 5a, 1-(4-fluorophenyl)-6-methyl-3-[1-[2-[3-(2-propyl)-2-imidazolidinon-1-yl]ethyl]-4-piperidyl]-1H-indole] | 0.11 | 0.04 | – | > 18 | – | –
OCCN1CCN(c2cn(-c3ccc(F)cc3)c3ccc(C(F)(F)F)cc23)CC1 [Lu 21-152, 1-(4-fluorophenyl)-3-[4-(2-hydroxyethyl)-1-piperazinyl]-5-trifluoromethyl-1H-indole, reference compound] | – | – | – | 0.02 | 0.02 | 0.15
